Measurements as given in patent US10238688B2, “Combination therapies for bladder cancer” (GENEDIA BIOTECH CO. LTD., priority 2015, dated 2019).

Experiments:
T24 = experiment: MTT cell survival / IC50, T24 cells; assay type: cell-based, human; conditions: for Cell survival (%): Table S3, ng/ml: Pi 40, Pa 160, EH 250, Ci 1500, Mi 200, 1=Ci/Mi, 2=EH/Ci/Mi, 3=Pa/Ci/Mi, 4=Pi/Ci/Mi; for Single drug 4X Cell Survival (%): ng/ml: EH 1000, Ci 6000, Mi 800, Pi 160, Pa 640, Ge 20, EH/Ci/Mi regimen
Method: (§1) The clinical grade of the chemotherapeutics (NCI Dictionary of Cancer Terms) was provided by the First Affiliated Hospital of Harbin Medical University: Pirarubicin (Pi, Wanle, Shenzhen), Paclitaxel (Pa, Taiji, Sichuan), Adriamycin (Ad, Pfizer, Jiangsu), Epirubicin Hydrochloride (EH, Haizheng, Zhejiang), Hydroxycamptothecin (Hy, Lishizhen, Hubei), Cisplatin (Ci, Haosen, Jiangsu), Gemcitabine (Ge, Haosen, Jiangsu) and Mitomycin (Mi, Haizheng, Zhejiang). The drug induced cell death was determined by a thiazolyl […] (MTT, 490 nm reading) based cell proliferation assay in the cultured cells following treatment by various concentrations of drugs for 72 hours. The relative chemoresistance to each drug of all cell lines was calculated with the lowest IC50 as a reference. The overall chemoresistance of each cell line was described as “chemoresistance index”, the numerator of the total relative IC50 to all the drugs over the number of drugs to rank the overall resistance state of each cell line to the six chemotherapeutics collectively.
(§2) The relative IC50 (fold) of each drug of all nine cell lines was normalized to the lowest IC50 in the most sensitive cell line (FIG. 2G), to describe the single drug resistance of cell lines. The overall chemoresistance of each cell line, a “chemoresistance index” (the numerator of the total relative IC50 over the number of drugs) (FIG. 2G) were calculated to rank the overall resistance state of each cell line to this six chemotherapeutics.
Twenty six-drug combinations at the indicated doses were initially generated through a random number generator (using MATLAB MathWorks©, Natick, Mass., U.S.) (The upper half of Table 1). The cell survival (% over the not drug control) of treated cells was determined and then used for a calculation of the average cumulative cell survival (%, ACS: the sum of cell survival (%) per combination divided by the number of cell lines tested). ACS<30% was used to separate the effective from the not-effective combinations.

Notch pathway = experiment: Cignal Finder dual-luciferase pathway reporter, Notch; assay type: cell-based, human; parameters: key to Relative activity, Notch reporter: firefly/renilla ratio, background (negative control) subtracted; conditions: for Relative activity, Notch reporter: luc/Renluc relative to negative control reporter, single drug at 4 folds vs EH/Ci/Mi combination;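 as to digitalized pathway activity, Notch: code −1 means repressed below 0.5-fold of 5637 cells or no-drug control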
Method: (§3) The pathway analysis was performed with Qiagen's Cignal Finder Pathway Reporter Array systems according to the manufacturer's instructions. The pathway-focused dual-luciferase reporter construct was a mixture of an inducible transcription factor responsive firefly luciferase reporter and constitutively expressing renilla construct. Transcriptional response element (TRE) sequence response elements to each specific transcriptional factor triggered by the different signaling pathways are positioned before the TATA box of firefly luciferase reporter gene. The extent of activity of the reporter reflects the level of activity of the particular signaling pathway. CMV controlled renilla expression vector is co-transfected into the cell as an internal control. Non-inducible reporter construct that lacks the transcriptional factor binding sequence and could not be induced by any transcription factors is used as a negative control. Cells transfected with CMV directed firefly luciferase reporter gene serve as a positive control. Briefly, cells seeded in 6-well plates were transfected with Cignal finder pathway arrays according to the manufacturer's instructions (Qiagen). Then cells were seeded onto 96-well plates. Ci (6000 ng/mL), Mi (800 ng/mL), or EH (1000 ng/mL) and Ci/Mi/EH combination (Ci, 1500 ng/mL, Mi, 800 ng/mL and EH, 1000 ng/m L) were then added to the cells 24 h post-transfection. After 6 h of incubation with the different drugs at 37° C., cells were lysed and a dual luciferase assay (for firefly and renilla luciferase) was performed using a PromegaGloMax 20/20 illuminometer. The firefly luciferase activities were normalized over the renilla luciferase activities after background activity determined by luciferase activities of negative controls was subtracted. A triple test of cell survival under these drug doses was also performed by MTT assay following 18 h incubation at 37° C. […]

SV-HUC-1 = assay type: cell-based; conditions: for Single drug 4X Cell Survival (%): SV-HUC-1, ng/ml: EH 1000, Ci 6000, Mi 800, Pi 160, Pa 640, Ge 20, EH/Ci/Mi regimen; for Cell survival 72 hours / ACS (%): SV-HUC-1 cells; for Cell survival 72 hours: Table 4 (A); for ACS (%): Table 4 (B)
Method: as §1, §2

[1] = tested on: DNA Damage response pathway; experiment: Cignal Finder dual-luciferase pathway reporter, DNA Damage response (5637, Biu87, UM-UC-3, H-bc, SV-HUC-1); assay type: cell-based, human; parameters: key to Relative activity, DNA Damage reporter: firefly/renilla ratio, background (negative control) subtracted; conditions: for Relative activity, DNA Damage reporter: luc/Renluc relative to negative control reporter, single drug at 4 folds vs EH/Ci/Mi combination
Method: as §3, with “Ci (6000 ng/mL), Mi (800 ng/mL), or EH (1000 ng/mL) and Ci/Mi/EH combination (Ci, 1500 ng/mL, Mi, 800 ng/mL and EH, 1000 ng/m L) were then added to the cells 24 h post-transfection.” left out

SMILES	Cell survival (%) (T24)	Single drug 4X Cell Survival (%) (T24)	relative drug trigged pathway activity over the no-drug level, Notch (Notch pathway; 5637 cells) [fold]	Relative activity, Notch reporter (Notch pathway; 5637 cells)	relative drug trigged pathway activity over the no-drug level, Notch (Notch pathway; Biu87 cells) [fold]	Relative activity, Notch reporter (Notch pathway; Biu87 cells)	relative drug trigged pathway activity over the no-drug level, Notch (Notch pathway; H-bc cells) [fold]	Relative activity, Notch reporter (Notch pathway; H-bc cells)	digitalized pathway activity, Notch (Notch pathway; SV-HUC-1 cells)	relative drug trigged pathway activity over the no-drug level, Notch (Notch pathway; SV-HUC-1 cells) [fold]	Relative activity, Notch reporter (Notch pathway; SV-HUC-1 cells)	Relative activity, Notch reporter (Notch pathway; UM-UC-3 cells)	relative drug trigged pathway activity over the no-drug level, Notch (Notch pathway; Um-Uc-3 cells) [fold]	Single drug 4X Cell Survival (%) (SV-HUC-1)	Cell survival 72 hours (SV-HUC-1) [%]	ACS (%) (SV-HUC-1)	relative drug trigged pathway activity over the no-drug level, DNA Damage ([1]; 5637 cells) [fold]	Relative activity, DNA Damage reporter ([1]; 5637 cells)	digitalized pathway activity, DNA Damage ([1]; Biu87 cells)	relative drug trigged pathway activity over the no-drug level, DNA Damage ([1]; Biu87 cells) [fold]	further results
N.N.[Cl][Pt][Cl] [Ci, (SP-4-2)-diamminedichloroplatinum(II)]	15.46	10.49	1.39	1.41	0.5	2.23	0.31	1.60	0 (null (0) if neither of the above holds)	1.44	6.20	4.99	1.01	26.21	26.21	26.21	2.17	0.48	0 (null (0) if neither of the above holds)	0.63	digitalized pathway activity, Notch (Notch pathway; 5637 cells): 0 (null (0) if neither of the above holds); digitalized pathway activity, Notch (Notch pathway; UM-UC-3 cells): 0 (null (0) if neither of the above holds); Relative activity, DNA Damage reporter ([1]; Biu87 cells): 0.94; relative drug trigged pathway activity over the no-drug level, DNA Damage ([1]; H-bc cells): 1.69 fold; Relative activity, DNA Damage reporter ([1]; H-bc cells): 4.19; relative drug trigged pathway activity over the no-drug level, DNA Damage ([1]; SV-HUC-1 cells): 1.54 fold; Relative activity, DNA Damage reporter ([1]; SV-HUC-1 cells): 3.70; digitalized pathway activity, DNA Damage ([1]; UM-UC-3 cells): 0 (null (0) if neither of the above holds); Relative activity, DNA Damage reporter ([1]; UM-UC-3 cells): 2.38; relative drug trigged pathway activity over the no-drug level, DNA Damage ([1]; Um-Uc-3 cells): 0.68 fold
COc1cccc2c1C(=O)c1c(O)c3c(c(O)c1C2=O)C[C@@](O)(C(=O)CO)C[C@@H]3[C@@H]1C[C@H](N)[C@@H](O)[C@H](C)O1 [EH, (8R,10S)-10-((2S,4S,5R,6S)-4-amino-5-hydroxy-6-methyltetrahydro-2H-pyran-2-yl)-6,8,11-trihydroxy-8-(2-hydroxyacetyl)-1-methoxy-7,8,9,10-tetrahydrotetracene-5,12-dione]	20.13	17.79	1.92	1.95	1.34	5.94	1.6	2.20	0 (null (0) if neither of the above holds)	1.3	5.60	10.16	2.05	61.89	61.89	61.89	3.42	0.75	0 (null (0) if neither of the above holds)	1.04	digitalized pathway activity, Notch (Notch pathway; Biu87 cells): 0 (null (0) if neither of the above holds); Relative activity, DNA Damage reporter ([1]; Biu87 cells): 1.58; relative drug trigged pathway activity over the no-drug level, DNA Damage ([1]; H-bc cells): 6.13 fold; Relative activity, DNA Damage reporter ([1]; H-bc cells): 3.99; relative drug trigged pathway activity over the no-drug level, DNA Damage ([1]; SV-HUC-1 cells): 2.5 fold; Relative activity, DNA Damage reporter ([1]; SV-HUC-1 cells): 6.00; Relative activity, DNA Damage reporter ([1]; UM-UC-3 cells): 5.96; relative drug trigged pathway activity over the no-drug level, DNA Damage ([1]; Um-Uc-3 cells): 1.71 fold
COC12C(COC(N)=O)C3=C(C(=O)C(C)=C(N)C3=O)N1CC1NC12 (stereo not shown) [Mi, [6-Amino-8a-methoxy-5-methyl-4,7-dioxo-1,1a,2,4,7,8,8a,8b-octahydroazireno [2′,3′:3,4]pyrrolo[1,2-a]indol-8-yl]methyl carbamate]	51.34	19.72	2.2	2.23	1.45	6.42	0.42	0.59	0 (null (0) if neither of the above holds)	0.95	4.10	7.40	1.5	91.17	91.17	91.17	2.87	0.63	0 (null (0) if neither of the above holds)	1.35	digitalized pathway activity, Notch (Notch pathway; Biu87 cells): 0 (null (0) if neither of the above holds); Relative activity, DNA Damage reporter ([1]; Biu87 cells): 2.03; digitalized pathway activity, DNA Damage ([1]; H-bc cells): 0 (null (0) if neither of the above holds); relative drug trigged pathway activity over the no-drug level, DNA Damage ([1]; H-bc cells): 1.08 fold; Relative activity, DNA Damage reporter ([1]; H-bc cells): 0.73; relative drug trigged pathway activity over the no-drug level, DNA Damage ([1]; SV-HUC-1 cells): 1.75 fold; Relative activity, DNA Damage reporter ([1]; SV-HUC-1 cells): 4.20; digitalized pathway activity, DNA Damage ([1]; UM-UC-3 cells): 0 (null (0) if neither of the above holds); Relative activity, DNA Damage reporter ([1]; UM-UC-3 cells): 4.77; relative drug trigged pathway activity over the no-drug level, DNA Damage ([1]; Um-Uc-3 cells): 1.37 fold
